Source: patent publication US9133236B2, “Connective tissue stimulating peptides” (priority 2002, dated 2015)
Where no end group is shown, it is not given here. [ ]: non-standard residue; d: D form. Hyp = O=C(O)[C@@H]1C[C@@H](O)CN1

Tests used:
human chondrocytes = experiment: [3H] thymidine incorporation assay, human primary chondrocyte cultures; assay type: cell-based
Method: (§1) BCSP1 was tested in vitro to determine effect on bovine and human primary chondrocyte cultures using a [3H] thymidine incorporation assay. Cells were seeded at […] for human chondrocytes (96 well plate) and allowed to attach for 48 h (medium containing 10% fetal bovine serum (FBS). Pre-confluent cells were then treated in quaduplicate with BCSP1 (0, 10, 20 and 40 ng/ml for 48 hrs and with [3H]thymidine ([…]) for the last 24 hrs (medium containing 2% FBS). The culture medium used was Dulbecco's Modified Eagle Medium (DMEM) (Gibco, Cat. #23800) containing 200 units/ml Penicillin, 200 ug/ml Streptomycin and 10% FBS for growth and 2% FBS for dosing.

[1] = system: rat bone marrow derived osteoblasts; experiment: Cell bound alkaline phosphatase, bone marrow derived osteoblasts; assay type: cell-based
Method: (§2) BCSP1 was tested in three assays to understand the mechanism of bone stimulation by the peptide. Dose ranges in the microgram range were used to generate dose response curves. All assays used primary rat osteoblast cultures from bone marrow or calvaria.
(§3) Osteoblast proliferation was accessed using a DNA based assay which measures bromodeoxyuridine (BrdU) incorporation. Differentiation of osteoblasts was determined using the mid to late stage bone marker Alkaline Phosphatase. Late stage differentiation and mineralization was determined using a Bone Nodule formation assay (calvaria only).
(§4) Cell bound alkaline phosphatase from cell lysates of rat bone marrow derived osteoblasts and rat calvaria derived osteoblasts. BCSP1 was provided at a dose range of 100 μg/ml to 1 μg/mL. Cells were cultured for 3 days prior to a 48 hr exposure to the peptide.

[2] = system: osteoblast cultures derived from rat calvaria; experiment: Osteoblast proliferation, BrdU incorporation, calvaria derived cultures; assay type: cell-based; conditions: dose range of 1.3-6.4 ng/ml; 24 hr exposure
Method: as §2, §3
Cells were cultured for four days prior to a 24 hr exposure to the peptide at a dose range from 100 μg/ml to 1.3 ng/ml of peptide (FIG. 12).

bovine chondrocytes = experiment: [3H] thymidine incorporation assay, bovine primary chondrocyte cultures; assay type: cell-based
Method: as §1

[3] = system: rat calvaria derived osteoblasts; experiment: Cell bound alkaline phosphatase, calvaria derived osteoblasts; assay type: cell-based; conditions: rat calvaria cultures (RC); 10 μg/ml to 100 μg/ml; 48 hr exposure
Method: as §2, §3, §4

[4] = system: osteoblast cultures derived from rat bone marrow; experiment: Osteoblast proliferation, BrdU incorporation, bone marrow derived cultures; assay type: cell-based; conditions: 24 hr exposure
Method: as §2, §3
Cells were cultured for four days prior to a 24 hr exposure to the peptide (FIG. 11).

rat calvaria cultures = experiment: Bone nodule formation assay, alizarin red staining; assay type: cell-based; conditions: 10 days
Method: as §2, §3
Rat calvaria cultures were maintained for 10 days in the presence of BCSP1 at a dose range of 1 ng/ml to 100 μg/ml with dosing provided at each fluid change. Mineralized bone nodules were detected by staining with alizarin red. Image analysis was conducted with an Alpha Imager 2000™ to count and quantify nodule area. […] Increased alkaline phosphatase would lead to increases in total mineralized area.

tibia = experiment: Periosteal tibia injection, DEXA bone mineral density and content; assay type: in vivo, male Wistar rats; conditions: 7 days post injection; for changes in BMC (bone mineral content) / changes in BMD (bone mineral density): treated whole tibia in all regions, DEXA, SKELITE powder carrier
Method: BCSP1 peptide and BCSP4 peptide were tested at four dose levels, 0.05, 0.5, 1.0 & 5.0 mg/rat or vehicle, n=6 per dose. Sixty male Wistar rats, weighing 90-110 grams, were randomized into two groups, ear tagged and left undisturbed for 1 week prior to the procedure. Food and water are administered ad libitum. Animals weighed 150-190 grams at time of injection. Group 1 received injections of BCSP4 peptide on day 8 of acclimation. Group 2 received injections of BCSP1 peptide on day 9 of acclimation. Dissections were conducted on respective days, 7 days post injection.
The peptides were dissolved in sterile water at 0.05-5 mgs per 100 microliter volume, added to 0.5 mg of a dry synthetic biomaterial compound (SKELITE™) powder and lyophilized onto the carrier. Samples are resuspended in 100 microliters of sterile saline for injection. Delivery of the test compound was made under a general anaesthetic of Isofluorane with oxygen. Using a 0.5 cc insulin syringe fitted with a 28G1/2″ needle, the peptides were deposited onto the periosteal surface of the right medial tibia surface proximal to the knee under the Tibialis cranialis muscle group. Control animals are injected with saline vehicle and a synthetic biomaterial compound (SKELITE™) carrier.
Animals were euthanized with carbon dioxide and dissected to remove the treated right tibia and contra-lateral control limb, 7 days post injection. Muscle and soft connective tissue is dissected away prior to fixation in 70% ethanol.
Each tibia set was scanned as a pair for bone mineral density (BMD) and bone mineral content (BMC) on a Norland Eclipse DEXA scanner in small subject mode. Percent increases in local BMD (FIG. 5) were calculated against the untreated contra-lateral limb. […] This increase in physical size reduces the overall percentage increase in BMD (BMD=BMC/cm^2). Each tibia was analyzed in 3 contiguous regions, proximal, medial and distal as well as whole tibia measurements. Comparisons and statistical assessment of dose versus vehicle were conducted for each peptide for bone forming activity using a standard student t-test.

NGLPGPIGP* (NGLPGPIG[Hyp]) [BCSP1, P* is hydroxyproline]
proliferation of chondrocyte cells (human chondrocytes; 10, 20 and 40 ng/ml, 48 hrs): dose dependent increase
effect on proliferation (human chondrocytes; doses in the nanogram range): up to 3 fold
specific activity of alkaline phosphatase ([1]; further experimentation, not shown, culture not specified): increase in specific activity
alkaline phosphatase over control (vehicle) ([1]; rat bone marrow cultures (RBM), 1 μg/ml to 100 μg/ml, 48 hr exposure): dose dependent response
osteoblast proliferation [2]: statistically significant increase
proliferation of chondrocyte cells (bovine chondrocytes; 10, 20 and 40 ng/ml, 48 hrs): dose dependent increase
effect on proliferation (bovine chondrocytes; doses in the nanogram range): up to 3 fold
alkaline phosphatase over control (vehicle) [3]: dose dependent response
increase in DNA synthesis ([4]; rat bone marrow osteoblasts, up to 100 μg/ml): ≤ 75%
osteoblast proliferation ([4]; to 100 μg/ml): dose response increase
number of bone nodules formed (rat calvaria cultures; 1 ng/ml and 10 ng/ml range): slight increase
number of bone nodules formed (rat calvaria cultures; 1 ng/ml to 100 μg/ml): minimal changes
total mineralized bone nodule area (size of nodules) (rat calvaria cultures; 1 ng/ml to 100 μg/ml, dose dependent): significantly increased
bone size (tibia; treated tibia): increase in bone size

PGPIGPPGPR [BCSP10]
changes in BMC (bone mineral content) (tibia): Significant changes
changes in BMD (bone mineral density) (tibia): Significant changes

PGPIGP [BCSP9]
changes in BMC (bone mineral content) (tibia): Significant changes
changes in BMD (bone mineral density) (tibia): Significant changes

PGPIG [BCSP7]
changes in BMC (bone mineral content) (tibia): Significant changes
changes in BMD (bone mineral density) (tibia): Significant changes
